Literature values in patent US10213524B2, “Coating comprising strontium for body implants” (ELOS MEDTECH PINOL A/S, priority 2012, dated 2019).

Tested on: mice
Details: intravenous injection

Structure (SMILES): CC(=O)[O-].CC(=O)[O-].[Sr+2] [strontium acetate]
- toxic concentration (can cause mortality): ~40 mg/kg Sr
